Data from patent publication US20210267203A1, “PESTICIDALLY ACTIVE AZOLE-AMIDE COMPOUNDS” (SYNGENTA PARTICIPATIONS AG, priority 2018, published 2021).

Legend:
Assay type in all cases: in vivo
[1] = test system: Diabrotica Balteata (Corn Root Worm); test: Example B1: Diabrotica balteata (corn root worm), maize sprouts sprayed, L2 larvae; details: 96 h, application rate 200 ppm, 4 days after infestation, read-out: effect in at least one of the two categories (mortality or growth inhibition)
Summary of the method: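 Maize sprouts on agar sprayed with aqueous dilutions of 10,000 ppm DMSO stocks, dried, then infested with 6–10 L2 larvae per well. Mortality and growth inhibition scored against untreated samples 4 days after infestation; rates of 200 ppm.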

[2] = test system: Chilo suppressalis (Striped Rice Stemborer); test: Example B4: Chilo suppressalis (striped rice stemborer), artificial diet, L2 larvae; details: 144 h, application rate 200 ppm, 6 days after infestation
Summary of the method: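 L2 larvae (6-8 per well) placed on artificial diet treated with aqueous test solutions prepared from 10,000 ppm DMSO stocks, after drying. Mortality, anti-feeding and growth inhibition scored against untreated samples 6 days after infestation; control means at least one category exceeds untreated.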

[3] = test system: Plutella xylostella (Diamond Back Moth); test: Example B5: Plutella xylostella (diamond back moth), artificial diet, 24-well, eggs; details: 192 h, application rate 200 ppm, 8 days after infestation, read-out: effect in at least one of the two categories (mortality or growth inhibition)
Summary of the method: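 Artificial diet in 24-well plates treated with aqueous dilutions of 10,000 ppm DMSO stocks, dried, then infested with Plutella eggs. Mortality and growth inhibition scored against untreated samples 8 days after infestation; activity rated at 200 ppm application rate.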

[4] = test system: Myzus persicae (Green Peach Aphid); test: Example B6: Myzus persicae (green peach aphid), feeding/contact activity; details: 144 h, application rate 200 ppm, 6 days after infestation
Description: Example B6: Myzus persicae (Green Peach Aphid):Feeding/Contact Activity
Sunflower leaf discs were placed onto agar in a 24-well microtiter plate and sprayed with aqueous test solutions prepared from 10,000 ppm DMSO stock solutions. After drying, the leaf discs were infested with an aphid population of mixed ages. The samples were assessed for mortality 6 days after infestation.

[5] = test system: Myzus persicae (Green Peach Aphid); test: Example B8: Myzus persicae (green peach aphid), intrinsic activity; details: 120 h, test rate 12 ppm, sucrose solution, 24-well, 5 days after infestation
Summary of the method: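 Compounds diluted from 10,000 ppm DMSO stock were mixed with sucrose solution under stretched Parafilm in a sachet feeding setup, with aphid-infested pea seedlings placed on the membrane. Mortality was scored 5 days after infestation.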

[6] = test system: Spodoptera littoralis (Egyptian Cotton Leaf Worm); test: Example B9: Spodoptera littoralis (Egyptian cotton leaf worm), cotton leaf discs sprayed, L1 larvae; details: foliar, 72 h, application rate 200 ppm, 3 days after infestation
Summary of the method: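 Leaf discs on agar sprayed with aqueous dilutions from 10,000 ppm DMSO stock, dried, then infested with five L1 larvae. Mortality, anti-feeding and growth inhibition scored against untreated samples 3 days after infestation; control counted when any category exceeds untreated.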

[7] = test system: Spodoptera littoralis (Egyptian Cotton Leaf Worm); test: Example B10: Spodoptera littoralis (Egyptian cotton leaf worm), uptake by lettuce roots from agar, eggs; details: 144 h, test rate 12.5 ppm, lettuce root uptake, 6 days after infestation, read-out: effect in at least one of the three categories (mortality, anti-feeding, or growth inhibition)
Source text: Example B10: Spodoptera littoralis (Egyptian Cotton Leaf Worm)
Test compounds were applied by pipette from 10,000 ppm DMSO stock solutions into 24-well plates and mixed with agar. Lettuce seeds were placed onto the agar and the multi well plate was closed by another plate which contained also agar. After 7 days the compound was absorbed by the roots and the lettuce grew into the lid plate. The lettuce leaves were then cut off into the lid plate. Spodoptera eggs were pipetted through a plastic stencil onto a humid gel blotting paper and the lid plate was closed with it. The samples were assessed for mortality, anti-feedant effect and growth inhibition in comparison to untreated samples 6 days after infestation.
The following compounds gave an effect of at least 80% in at least one of the three categories (mortality, anti-feeding, or growth inhibition) at a test rate of 12.5 ppm: […]

[8] = test system: Thrips tabaci (Onion Thrips); test: Example B12: Thrips tabaci (onion thrips), feeding/contact activity; details: 144 h, application rate 200 ppm, mixed ages, 6 days after infestation
Description: Example B12: Thrips tabaci (Onion Thrips) Feeding/Contact Activity
Sunflower leaf discs were placed on agar in 24-well microtiter plates and sprayed with aqueous test solutions prepared from 10,000 ppm DMSO stock solutions. After drying the leaf discs were infested with a thrips population of mixed ages. The samples were assessed for mortality 6 days after infestation.

[9] = test system: Myzus persicae (Green Peach Aphid); test: Example B13: activity against Myzus persicae (green peach aphid), 96-well sucrose solution; details: 120 h, application rate 50 ppm, 5 days after infestation
Summary of the method: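 Compounds, from 10,000 ppm DMSO stocks, mixed into sucrose solution in wells under stretched Parafilm, with aphids placed on the membrane in an inverted feeding setup. Mortality scored 5 days after infestation.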

[10] = test system: Plutella xylostella (Diamondback Moth); test: Example B14: activity against Plutella xylostella (diamondback moth), 96-well artificial diet; details: 216 h, application rate 500 ppm, 9 days after infestation
Summary of the method: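 Diet in 96-well plates was treated with aqueous dilutions of 10,000 ppm DMSO stocks, dried, and infested with 30 eggs per well via a netted lid; hatching L1 larvae fed on the diet. Mortality scored 9 days after infestation.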

[11] = test system: Euschistus heros (Neotropical Brown Stink Bug); test: Example B2: Euschistus heros (neotropical brown stink bug), soybean leaves sprayed, N2 nymphs; details: 120 h, application rate 200 ppm, 5 days after infestation, read-out: effect in at least one of the two categories (mortality or growth inhibition)
Summary of the method: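 Soybean leaves on agar sprayed with aqueous test solutions made from 10,000 ppm DMSO stocks, dried, then infested with N2 nymphs. Mortality and growth inhibition scored versus untreated samples 5 days after infestation; activity threshold at 200 ppm.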

[12] = test system: Myzus persicae (Green Peach Aphid); test: Example B7: Myzus persicae (green peach aphid), systemic activity; details: 144 h, test rate 24 ppm, pea seedling roots in test solution, 6 days
Description: Example B7: Myzus persicae (Green Peach Aphid), Systemic Activity
Roots of pea seedlings infested with an aphid population of mixed ages were placed directly into aqueous test solutions prepared from 10,000 DMSO stock solutions. The samples were assessed for mortality 6 days after placing seedlings into test solutions.

CC(c1ncnn1-c1ncccn1)N(CC1CC1)C(=O)c1cc(C2CC2(F)F)cc(C(F)(F)F)c1 (stereo not drawn) [P50, N-(cyclopropylmethyl)-3-(2,2-difluorocyclopropyl)-N-[1-(2-pyrimidin-2-yl-1,2,4-triazol-3-yl)ethyl]-5-(trifluoromethyl)benzamide]
≥ 80%: percent effect (mortality or growth inhibition) at 200 ppm [1] | percent control (mortality, anti-feedant effect or growth inhibition) at 200 ppm [2] | percent effect (mortality or growth inhibition) at 200 ppm [3] | mortality at 200 ppm [4] | mortality at 12 ppm [5] | percent control (mortality, anti-feedant effect or growth inhibition) at 200 ppm [6] | percent effect (mortality, anti-feeding or growth inhibition) at 12.5 ppm [7] | mortality at 200 ppm [8] | mortality at 50 ppm [9] | mortality at 500 ppm [10]

CC(c1ncnn1-c1ncccn1)N(CC1CC1)C(=O)c1cc(C(F)(F)F)nc(C2(C#N)CC2)c1 (stereo not drawn) [P32, 2-(1-cyanocyclopropyl)-N-(cyclopropylmethyl)-N-[1-(2-pyrimidin-2-yl-1,2,4-triazol-3-yl)ethyl]-6-(trifluoromethyl)pyridine-4-carboxamide]
≥ 80%: percent effect (mortality or growth inhibition) at 200 ppm [1] | percent effect (mortality or growth inhibition) at 200 ppm [11] | percent control (mortality, anti-feedant effect or growth inhibition) at 200 ppm [2] | percent effect (mortality or growth inhibition) at 200 ppm [3] | percent control (mortality, anti-feedant effect or growth inhibition) at 200 ppm [6] | percent effect (mortality, anti-feeding or growth inhibition) at 12.5 ppm [7] | mortality at 200 ppm [8] | mortality at 50 ppm [9] | mortality at 500 ppm [10]

CC(NC(=O)c1cc(C(F)(F)F)cc(C(C)(C)C#N)c1)c1ncnn1-c1ncccn1 (stereo not drawn) [P84, 3-(1-cyano-1-methyl-ethyl)-N-[1-(2-pyrimidin-2-yl-1,2,4-triazol-3-yl)ethyl]-5-(trifluoromethyl)benzamide]
≥ 80%: percent effect (mortality or growth inhibition) at 200 ppm [1] | percent effect (mortality or growth inhibition) at 200 ppm [11] | percent control (mortality, anti-feedant effect or growth inhibition) at 200 ppm [2] | percent effect (mortality or growth inhibition) at 200 ppm [3] | mortality at 24 ppm [12] | mortality at 12 ppm [5] | percent control (mortality, anti-feedant effect or growth inhibition) at 200 ppm [6]

CC(c1ncnn1-c1ncccn1)N(CC1CC1)C(=O)c1cc(C2CC2C(F)(F)F)cc(C(F)(F)F)c1 (stereo not drawn) [P42, N-(cyclopropylmethyl)-N-[1-(2-pyrimidin-2-yl-1,2,4-triazol-3-yl)ethyl]-3-(trifluoromethyl)-5-[2-(trifluoromethyl)cyclopropyl]benzamide]
≥ 80%: percent effect (mortality or growth inhibition) at 200 ppm [1] | percent effect (mortality or growth inhibition) at 200 ppm [11] | percent control (mortality, anti-feedant effect or growth inhibition) at 200 ppm [2] | percent effect (mortality or growth inhibition) at 200 ppm [3] | mortality at 200 ppm [4] | mortality at 12 ppm [5] | percent control (mortality, anti-feedant effect or growth inhibition) at 200 ppm [6] | percent effect (mortality, anti-feeding or growth inhibition) at 12.5 ppm [7] | mortality at 200 ppm [8] | mortality at 50 ppm [9] | mortality at 500 ppm [10]

CC(c1ncnn1-c1ncccn1)N(CC1CC1)C(=O)c1cc(C(F)(F)F)cc(S(=O)(=O)C(F)F)c1 (stereo not drawn) [P30, N-(cyclopropylmethyl)-3-(difluoromethylsulfonyl)-N-[1-(2-pyrimidin-2-yl-1,2,4-triazol-3-yl)ethyl]-5-(trifluoromethyl)benzamide]
≥ 80%: percent effect (mortality or growth inhibition) at 200 ppm [1] | percent effect (mortality or growth inhibition) at 200 ppm [11] | percent effect (mortality or growth inhibition) at 200 ppm [3] | mortality at 12 ppm [5] | mortality at 200 ppm [8] | mortality at 50 ppm [9] | mortality at 500 ppm [10]

CC(NC(=O)c1cc(C2CC2C(F)(F)F)cc(C(F)(F)F)c1)c1ncnn1-c1ncccn1 (stereo not drawn) [P25, N-[1-(2-pyrimidin-2-yl-1,2,4-triazol-3-yl)ethyl]-3-(trifluoromethyl)-5-[2-(trifluoromethyl)cyclopropyl]benzamide]
≥ 80%: percent effect (mortality or growth inhibition) at 200 ppm [1] | percent effect (mortality or growth inhibition) at 200 ppm [11] | percent control (mortality, anti-feedant effect or growth inhibition) at 200 ppm [2] | percent effect (mortality or growth inhibition) at 200 ppm [3] | mortality at 12 ppm [5] | percent control (mortality, anti-feedant effect or growth inhibition) at 200 ppm [6] | percent effect (mortality, anti-feeding or growth inhibition) at 12.5 ppm [7] | mortality at 200 ppm [8] | mortality at 50 ppm [9] | mortality at 500 ppm [10]

CC(c1ncnn1-c1ncccn1)N(CC1CC1)C(=O)c1cc(C(F)(F)F)cc(C(F)(F)C2CC2)c1 (stereo not drawn) [P49, 3-[cyclopropyl(difluoro)methyl]-N-(cyclopropylmethyl)-N-[1-(2-pyrimidin-2-yl-1,2,4-triazol-3-yl)ethyl]-5-(trifluoromethyl)benzamide]
≥ 80%: percent effect (mortality or growth inhibition) at 200 ppm [1] | percent effect (mortality or growth inhibition) at 200 ppm [11] | percent control (mortality, anti-feedant effect or growth inhibition) at 200 ppm [2] | percent effect (mortality or growth inhibition) at 200 ppm [3] | mortality at 12 ppm [5] | percent control (mortality, anti-feedant effect or growth inhibition) at 200 ppm [6] | percent effect (mortality, anti-feeding or growth inhibition) at 12.5 ppm [7] | mortality at 200 ppm [8] | mortality at 50 ppm [9] | mortality at 500 ppm [10]

CC(c1ncnn1-c1ncccn1)N(CC1CC1)C(=O)c1cc(C2CC2)cc(C(F)(F)F)c1 (stereo not drawn) [P52, 3-cyclopropyl-N-(cyclopropylmethyl)-N-[1-(2-pyrimidin-2-yl-1,2,4-triazol-3-yl)ethyl]-5-(trifluoromethyl)benzamide]
≥ 80%: percent effect (mortality or growth inhibition) at 200 ppm [1] | percent effect (mortality or growth inhibition) at 200 ppm [11] | percent effect (mortality or growth inhibition) at 200 ppm [3] | mortality at 12 ppm [5] | percent control (mortality, anti-feedant effect or growth inhibition) at 200 ppm [6] | mortality at 200 ppm [8] | mortality at 50 ppm [9] | mortality at 500 ppm [10]
